According to ChEMBL document CHEMBL1150528, “The heparin-like antiproliferative activity of sulfated tetrasaccharides is sensitive to structural variation” (Bioorg Med Chem Lett, 1995):

How the values were obtained:
[1] = biological target: Coagulation factor X (Homo sapiens, UniProt P00742); experiment: Anticoagulant activity when interacted with Coagulation factor X
[2] = species on record: Rattus norvegicus; experiment: Relative inhibitory activity (ri) was measured in rat smooth muscle cells (SMC) at 100 ug/mL in comparison to that of Heparin; format: functional
[3] = biological target: Prothrombin (Homo sapiens, UniProt P00734); experiment: Anticoagulant activity when interacted with Coagulation factor II

Chain of Coagulation factor X (P00742 41-179 limits assumed): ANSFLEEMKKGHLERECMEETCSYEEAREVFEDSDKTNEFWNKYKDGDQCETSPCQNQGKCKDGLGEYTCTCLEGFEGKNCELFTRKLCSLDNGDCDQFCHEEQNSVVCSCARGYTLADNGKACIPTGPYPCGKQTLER
Chain of Coagulation factor X (P00742 235-488 limits assumed): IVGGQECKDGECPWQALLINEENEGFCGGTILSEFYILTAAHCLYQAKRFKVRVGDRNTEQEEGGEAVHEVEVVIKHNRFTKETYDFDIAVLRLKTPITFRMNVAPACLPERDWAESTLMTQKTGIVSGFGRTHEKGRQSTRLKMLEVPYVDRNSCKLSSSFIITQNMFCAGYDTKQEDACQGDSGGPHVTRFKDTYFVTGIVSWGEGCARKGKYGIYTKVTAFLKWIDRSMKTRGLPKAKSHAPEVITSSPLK

Structure (SMILES) | IC50 [1] | IC50 [3] | Relative inhibitory activity [2]
C[C@@H]1O[C@@H](OC[C@@H]2O[C@@H](O[C@H]3[C@H](OS(=O)(=O)[O-])[C@H](OS(=O)(=O)[O-])[C@@H](O[C@H]4O[C@@H](COS(=O)(=O)[O-])[C@H](OS(=O)(=O)[O-])[C@H](OS(=O)(=O)[O-])[C@@H]4OS(=O)(=O)[O-])O[C@H]3COS(=O)(=O)[O-])[C@@H](OS(=O)(=O)[O-])[C@@H](OS(=O)(=O)[O-])[C@@H]2OS(=O)(=O)[O-])[C@H](OS(=O)(=O)[O-])[C@@H](OS(=O)(=O)[O-])[C@H]1OS(=O)(=O)[O-].[Na+].[Na+].[Na+].[Na+].[Na+].[Na+].[Na+].[Na+].[Na+].[Na+].[Na+].[Na+].[Na+] | > 506 µM | > 506 µM | 0.7
O=S(=O)([O-])OC[C@@H]1O[C@@H](O[C@@H]2[C@H](OS(=O)(=O)[O-])[C@@H](O[C@H]3[C@H](OS(=O)(=O)[O-])[C@H](OS(=O)(=O)[O-])[C@@H](O[C@H]4O[C@@H](COS(=O)(=O)[O-])[C@H](OS(=O)(=O)[O-])[C@H](OS(=O)(=O)[O-])[C@@H]4OS(=O)(=O)[O-])O[C@H]3COS(=O)(=O)[O-])OC[C@H]2OS(=O)(=O)[O-])[C@@H](OS(=O)(=O)[O-])[C@@H](OS(=O)(=O)[O-])[C@H]1OS(=O)(=O)[O-].[Na+].[Na+].[Na+].[Na+].[Na+].[Na+].[Na+].[Na+].[Na+].[Na+].[Na+].[Na+].[Na+] | > 509 µM | > 509 µM | 0.7
O=S(=O)([O-])OC[C@@H]1O[C@H](O[C@H]2O[C@@H](COS(=O)(=O)[O-])[C@@H](O[C@@H]3O[C@@H](COS(=O)(=O)[O-])[C@@H](OS(=O)(=O)[O-])[C@H](OS(=O)(=O)[O-])[C@@H]3O[C@H]3O[C@@H](COS(=O)(=O)[O-])[C@H](OS(=O)(=O)[O-])[C@H](OS(=O)(=O)[O-])[C@@H]3OS(=O)(=O)[O-])[C@H](OS(=O)(=O)[O-])[C@@H]2OS(=O)(=O)[O-])[C@@H](OS(=O)(=O)[O-])[C@@H](OS(=O)(=O)[O-])[C@H]1OS(=O)(=O)[O-].[Na+].[Na+].[Na+].[Na+].[Na+].[Na+].[Na+].[Na+].[Na+].[Na+].[Na+].[Na+].[Na+].[Na+] (stereo in doubt; 13) | > 477 µM | > 477 µM | 0.5
O=S(=O)(O)OC[C@@H]1O[C@H](O[C@H]2O[C@@H](COS(=O)(=O)O)[C@@H](O[C@@H]3O[C@@H](COS(=O)(=O)O)[C@@H](OS(=O)(=O)O)[C@H](OS(=O)(=O)O)[C@@H]3O[C@H]3O[C@@H](COS(=O)(=O)O)[C@H](OS(=O)(=O)O)[C@H](OS(=O)(=O)O)[C@@H]3OS(=O)(=O)O)[C@H](OS(=O)(=O)O)[C@@H]2OS(=O)(=O)O)[C@@H](OS(=O)(=O)O)[C@@H](OS(=O)(=O)O)[C@H]1OS(=O)(=O)O (stereo in doubt; 14) | > 477 µM | > 477 µM | 

The next lines start with results.

IC50 [1] | IC50 [3] | Structure (SMILES) | Relative inhibitory activity [2]
> 477 µM | > 477 µM | O=S(=O)([O-])OC[C@@H]1O[C@@H](O[C@H]2O[C@@H](COS(=O)(=O)[O-])[C@@H](O[C@@H]3O[C@@H](CO[C@H]4O[C@@H](COS(=O)(=O)[O-])[C@@H](OS(=O)(=O)[O-])[C@H](OS(=O)(=O)[O-])[C@@H]4OS(=O)(=O)[O-])[C@@H](OS(=O)(=O)[O-])[C@H](OS(=O)(=O)[O-])[C@@H]3OS(=O)(=O)[O-])[C@H](OS(=O)(=O)[O-])[C@@H]2OS(=O)(=O)[O-])[C@@H](OS(=O)(=O)[O-])[C@@H](OS(=O)(=O)[O-])[C@H]1OS(=O)(=O)[O-].[Na+].[Na+].[Na+].[Na+].[Na+].[Na+].[Na+].[Na+].[Na+].[Na+].[Na+].[Na+].[Na+].[Na+] | 0.9
> 477 µM | > 477 µM | O=S(=O)([O-])OC[C@@H]1O[C@H](O[C@H]2O[C@@H](COS(=O)(=O)[O-])[C@@H](O[C@@H]3O[C@@H](COS(=O)(=O)[O-])[C@@H](OS(=O)(=O)[O-])[C@H](OS(=O)(=O)[O-])[C@@H]3O[C@@H]3O[C@@H](COS(=O)(=O)[O-])[C@@H](OS(=O)(=O)[O-])[C@H](OS(=O)(=O)[O-])[C@@H]3OS(=O)(=O)[O-])[C@H](OS(=O)(=O)[O-])[C@@H]2OS(=O)(=O)[O-])[C@@H](OS(=O)(=O)[O-])[C@@H](OS(=O)(=O)[O-])[C@H]1OS(=O)(=O)[O-].[Na+].[Na+].[Na+].[Na+].[Na+].[Na+].[Na+].[Na+].[Na+].[Na+].[Na+].[Na+].[Na+].[Na+] | 0.3
> 477 µM | > 477 µM | O=S(=O)([O-])OC[C@@H]1O[C@H](O[C@H]2O[C@@H](COS(=O)(=O)[O-])[C@@H](O[C@@H]3O[C@@H](COS(=O)(=O)[O-])[C@@H](OS(=O)(=O)[O-])[C@H](OS(=O)(=O)[O-])[C@@H]3O[C@H]3O[C@@H](COS(=O)(=O)[O-])[C@H](OS(=O)(=O)[O-])[C@H](OS(=O)(=O)[O-])[C@@H]3OS(=O)(=O)[O-])[C@H](OS(=O)(=O)[O-])[C@@H]2OS(=O)(=O)[O-])[C@@H](OS(=O)(=O)[O-])[C@@H](OS(=O)(=O)[O-])[C@H]1OS(=O)(=O)[O-].[Na+].[Na+].[Na+].[Na+].[Na+].[Na+].[Na+].[Na+].[Na+].[Na+].[Na+].[Na+].[Na+].[Na+] (stereo in doubt; 2) | 0.9
> 477 µM | > 477 µM | O=S(=O)([O-])OC[C@@H]1O[C@@H](O[C@H]2O[C@@H](COS(=O)(=O)[O-])[C@@H](O[C@@H]3O[C@@H](CO[C@H]4O[C@@H](COS(=O)(=O)[O-])[C@H](OS(=O)(=O)[O-])[C@H](OS(=O)(=O)[O-])[C@@H]4OS(=O)(=O)[O-])[C@@H](OS(=O)(=O)[O-])[C@H](OS(=O)(=O)[O-])[C@@H]3OS(=O)(=O)[O-])[C@H](OS(=O)(=O)[O-])[C@@H]2OS(=O)(=O)[O-])[C@@H](OS(=O)(=O)[O-])[C@@H](OS(=O)(=O)[O-])[C@H]1OS(=O)(=O)[O-].[Na+].[Na+].[Na+].[Na+].[Na+].[Na+].[Na+].[Na+].[Na+].[Na+].[Na+].[Na+].[Na+].[Na+] (stereo in doubt; 9) | 0.8
> 477 µM | > 477 µM | O=S(=O)([O-])OC[C@@H]1O[C@@H](O[C@H]2O[C@@H](COS(=O)(=O)[O-])[C@@H](O[C@@H]3O[C@@H](CO[C@H]4O[C@@H](COS(=O)(=O)[O-])[C@H](OS(=O)(=O)[O-])[C@H](OS(=O)(=O)[O-])[C@@H]4OS(=O)(=O)[O-])[C@@H](OS(=O)(=O)[O-])[C@H](OS(=O)(=O)[O-])[C@@H]3OS(=O)(=O)[O-])[C@H](OS(=O)(=O)[O-])[C@@H]2OS(=O)(=O)[O-])[C@@H](OS(=O)(=O)[O-])[C@@H](OS(=O)(=O)[O-])[C@H]1OS(=O)(=O)[O-].[Na+].[Na+].[Na+].[Na+].[Na+].[Na+].[Na+].[Na+].[Na+].[Na+].[Na+].[Na+].[Na+].[Na+] (stereo in doubt; 12) | 0.6
